Experimental data taken from the supplement of paper PMC11208160.

Experiment: recombinant UMI read abundance after kanamycin selection (control-corrected) (log10(CPM+1)); higher = more efficient recombination; extreme values may be limits of the assay; sequences stand for … in AGTGCAGAGAAAATCGGCCAGTTTTCTCTGCCTGCAGTCCGCATGCCGTGGGACCCCTTGGGTTCTAACCTGTTGCCTAGATTTATGCAGCGGACTGCCTTTCTCCCAAAGTGATAAACCGG…AGGTTGGTTTCACT; site = the 11-nt donor
Method in brief: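 The measure is log10(CPM+1) for recombinant UMIs. These were PCR-amplified across the donor–target junction and sequenced after Escherichia coli carrying a donor and donor-binding-loop pair library and a target plasmid with T7-inducible IS621 bridge recombinase was plated on IPTG (0.07 mM) plus kanamycin or unselected. CPM were averaged over two replicates and scaled by control-derived factors.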
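Also: IS621 bridge recombinase in Escherichia coli cells against a fixed T5 target plasmid.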

Sequence	recombinant UMI read abundance (log10)
TCGGTAGCATGGACCGGTTTTCCCGGTAATCCGTATTTGTG (site TCGGTAGCTCA)	0.629
TCGTACGCATGGACCGGTTTTCCCGGTAATCCGTATTTGCC (site TCGTACGCTGG)	0
TCGTATCCATGGACCGGTTTTCCCGGTAATCCGTATTTGAC (site TCGTATCCTGT)	0
TCGTCACCATGGACCGGTTTTCCCGGTAATCCGTATTTGTA (site TCGTCACCTTA)	0.0393
TCGTGCACATGGACCGGTTTTCCCGGTAATCCGTATTTGAC (site TCGTGCACTGT)	1.93
TCGTTCGCATGGACCGGTTTTCCCGGTAATCCGTATTTGCT (site TCGTTCGCTAG)	0
TCTAAGTCATGGACCGGTTTTCCCGGTAATCCGTATTTGCA (site TCTAAGTCTTG)	0.436
TCTAGAACATGGACCGGTTTTCCCGGTAATCCGTATTTGAG (site ACTAGAACTCT)	0.00743
TCTAGAACATGGACCGGTTTTCCCGGTAATCCGTATTTGAG (site CCTAGAACTCT)	0.0482
TCTAGAACATGGACCGGTTTTCCCGGTAATCCGTATTTGAG (site GCTAGAACTCT)	0
TCTAGAACATGGACCGGTTTTCCCGGTAATCCGTATTTGAG (site TCTAGAACTCT)	0.00301
TCTATGACATGGACCGGTTTTCCCGGTAATCCGTATTTGTG (site TCTATGACTCA)	0.00894
TCTGGACCATGGACCGGTTTTCCCGGTAATCCGTATTTGAC (site TCTGGACCTGT)	0
TCTGGCGCATGGACCGGTTTTCCCGGTAATCCGTATTTGCC (site TCTGGCGCTGG)	0
TCTTCCGCATGGACCGGTTTTCCCGGTAATCCGTATTTGAT (site TCTTCCGCTAT)	0.00526
TCTTCGGCATGGACCGGTTTTCCCGGTAATCCGTATTTGGC (site TCTTCGGCTGC)	0
TGAAGCTCATGGACCGGTTTTCCCGGTAATCCGTATTTGGG (site TGAAGCTCTCC)	0.0156
TGACAACCATGGACCGGTTTTCCCGGTAATCCGTATTTGCC (site TGACAACCTGG)	0
TGACACCCATGGACCGGTTTTCCCGGTAATCCGTATTTGAA (site TGACACCCTTT)	0.0711

Sequence	recombinant UMI read abundance (log10)
TGACCGGCATGGACCGGTTTTCCCGGTAATCCGTATTTGGC (site TGACCGGCTGC)	1.25
TGACCGGCATGGACCGGTTTTCCCGGTAATCCGTATTTGGC (site TGCCCGGCTGC)	0
TGACCGGCATGGACCGGTTTTCCCGGTAATCCGTATTTGGC (site TGGCCGGCTGC)	0
TGACCGGCATGGACCGGTTTTCCCGGTAATCCGTATTTGGC (site TGTCCGGCTGC)	0
TGACGGTCATGGACCGGTTTTCCCGGTAATCCGTATTTGAA (site TGACGGTCTTT)	1.52
TGACTATCATGGACCGGTTTTCCCGGTAATCCGTATTTGCC (site TGACTATCTGG)	1.54
TGAGCTACATGGACCGGTTTTCCCGGTAATCCGTATTTGCC (site TGAGCTACTGG)	0.451
TGAGCTTCATGGACCGGTTTTCCCGGTAATCCGTATTTGTA (site TGAGCTTCTTA)	1.92
TGAGGCACATGGACCGGTTTTCCCGGTAATCCGTATTTGGT (site TGAGGCACTAC)	0.463
TGAGGTCCATGGACCGGTTTTCCCGGTAATCCGTATTTGAA (site TGAGGTCCTTT)	0.00722
TGAGTCACATGGACCGGTTTTCCCGGTAATCCGTATTTGAC (site TGAGTCACTGT)	2.61
TGATAGACATGGACCGGTTTTCCCGGTAATCCGTATTTGCC (site AGATAGACTGG)	1.96
TGATAGACATGGACCGGTTTTCCCGGTAATCCGTATTTGCC (site CGATAGACTGG)	2.02
TGATAGACATGGACCGGTTTTCCCGGTAATCCGTATTTGCC (site GGATAGACTGG)	0
TGATAGACATGGACCGGTTTTCCCGGTAATCCGTATTTGCC (site TGATAGACTGG)	2.54
TGATCCTCATGGACCGGTTTTCCCGGTAATCCGTATTTGCT (site CGATCATCTAG)	0.523
TGATCCTCATGGACCGGTTTTCCCGGTAATCCGTATTTGCT (site TGATCCTCTAG)	1.81
TGATGAGCATGGACCGGTTTTCCCGGTAATCCGTATTTGGG (site TAATGAGCTCC)	0.0122
TGATGAGCATGGACCGGTTTTCCCGGTAATCCGTATTTGGG (site TCATGAGCTCC)	0.0102
